Data published in patent US9067922B2, “Chemical compounds” (Pfizer Limited, priority 2013, dated 2015).

These compounds were tested against URAT-1 transporter (Homo sapiens (Human), UniProt Q96S37) (assay: URAT-1 inhibitor activity: [14C]-uric acid uptake in CHO-URAT1(L)GFP#8 (CHO#8) cells, scintillation proximity). Settings: inhibition of [14C]-uric acid (30 nM) uptake into CHO#8 cells; compound 0 to 10 μM; 4 parameter logistic fit.
Format: cell-based
Procedure, shortened: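 CHO cells stably expressing human URAT1 long isoform–eGFP fusion, pre-incubated 1 h in chloride-containing buffer pH 7.4, then given 30 nM [14C]-uric acid with compound (0–10 μM, 0.25% DMSO) in chloride-free gluconate buffer pH 7.4. Uptake measured by scintillation proximity on Cytostar plates.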

Which IC50 does the source give for N#Cc1ccc(Oc2ccc(S(=O)(=O)Nc3cccnn3)cc2C#N)cc1Cl [Example 98, 4-(3-chloro-4-cyanophenoxy)-3-cyano-N-(pyridazin-3-yl)benzenesulfonamide] here?
Its IC50 is 3870 nM.

With N#Cc1cc(S(=O)(=O)Nc2ccccn2)ccc1Oc1ccc(Cl)cc1I [Example 80, 4-(4-chloro-2-iodophenoxy)-3-cyano-N-(pyridin-2-yl)benzenesulfonamide] as the compound, how does the IC50 read?
Its IC50 is 728 nM.

Which IC50 does the source give for Cc1cc(Cl)c(Oc2ccc(S(=O)(=O)Nc3ccc(F)cn3)cc2C#N)cc1C#N [Example 26, 4-(2-chloro-5-cyano-4-methylphenoxy)-3-cyano-N-(5-fluoropyridin-2-yl)benzenesulfonamide] here?
The IC50 was 57 nM.

With COc1cccc(Oc2ccc(S(=O)(=O)Nc3ccc(F)cn3)cc2C#N)c1 [Example 208, 3-cyano-N-(5-fluoropyridin-2-yl)-4-(3-methoxyphenoxy)benzenesulfonamide] as the compound, how does the IC50 read?
Its IC50 is over 10000 nM.

With N#Cc1cc(S(=O)(=O)Nc2ccc(F)cn2)ccc1Oc1ccc(F)c(Cl)c1 [Example 78, 4-(3-chloro-4-fluorophenoxy)-3-cyano-N-(5-fluoropyridin-2-yl)benzenesulfonamide] as the compound, how does the IC50 read?
The IC50 was 19 nM.

How did the IC50 turn out when Cc1ccncc1Oc1ccc(S(=O)(=O)Nc2ccc(F)cn2)cc1C#N [Example 198, 3-cyano-N-(5-fluoropyridin-2-yl)-4-[(4-methylpyridin-3-yl)oxy]benzenesulfonamide] was run?
The IC50 was 792 nM.

Cc1ccc(Oc2ccc(S(=O)(=O)Nc3ccc(F)cn3)cc2C#N)c(Cl)c1 [Example 42, 4-(2-chloro-4-methylphenoxy)-3-cyano-N-(5-fluoropyridin-2-yl)benzenesulfonamide] was tested. Which IC50 did it give?
The IC50 was 383 nM.

With COc1cc(F)c(F)cc1Oc1ccc(S(=O)(=O)Nc2ccc(F)cn2)cc1C#N [Example 144, 3-cyano-4-(4,5-difluoro-2-methoxyphenoxy)-N-(5-fluoropyridin-2-yl)benzenesulfonamide] as the compound, how does the IC50 read?
The IC50 was 40 nM.

COc1ccc(C)cc1Oc1ccc(S(=O)(=O)Nc2ccc(F)cn2)cc1C#N [Example 155, 3-cyano-N-(5-fluoropyridin-2-yl)-4-(2-methoxy-5-methylphenoxy)benzenesulfonamide] was tested. Which IC50 did it give?
Its IC50 is 191 nM.

Which IC50 does the source give for N#Cc1ccc(Oc2ccc(S(=O)(=O)Nc3ccncn3)cc2C#N)cc1Cl [Example 87, 4-(3-chloro-4-cyanophenoxy)-3-cyano-N-(pyrimidin-4-yl)benzenesulfonamide] here?
The IC50 was over 7670 nM.

With N#Cc1ccc(Oc2ccc(S(=O)(=O)Nc3ccc(F)cn3)cc2C#N)cc1F [Example 43, 3-cyano-4-(4-cyano-3-fluorophenoxy)-N-(5-fluoropyridin-2-yl)benzenesulfonamide] as the compound, how does the IC50 read?
The IC50 was 53 nM.

N#Cc1cc(S(=O)(=O)Nc2ccc(F)cn2)ccc1Oc1ccc(C(F)(F)F)cc1 [Example 54, 3-cyano-N-(5-fluoropyridin-2-yl)-4-[4-(trifluoromethyl)phenoxy]benzenesulfonamide] was tested. Which IC50 did it give?
The IC50 was over 10000 nM.

Which IC50 does the source give for COc1ccc(F)cc1Oc1ccc(S(=O)(=O)Nc2ccc(F)cn2)cc1C#N [Example 120, 3-cyano-4-(5-fluoro-2-methoxyphenoxy)-N-(5-fluoropyridin-2-yl)benzenesulfonamide] here?
Its IC50 is over 10000 nM.

With Cc1ccc(Oc2ccc(S(=O)(=O)Nc3ccc(F)cn3)cc2C#N)cc1 [Example 191, 3-cyano-N-(5-fluoropyridin-2-yl)-4-(4-methylphenoxy)benzenesulfonamide] as the compound, how does the IC50 read?
Its IC50 is 1990 nM.

How did the IC50 turn out when COc1cc(Cl)ccc1Oc1ccc(S(=O)(=O)Nc2ccc(F)cn2)cc1C#N [Example 143, 4-(4-chloro-2-methoxyphenoxy)-3-cyano-N-(5-fluoropyridin-2-yl)benzenesulfonamide] was run?
Its IC50 is 79 nM.

For Cc1cc(Oc2ccc(S(=O)(=O)Nc3ccc(F)cn3)cc2C#N)cc(C(C)C)c1 [Example 105, 3-cyano-N-(5-fluoropyridin-2-yl)-4-[3-methyl-5-(propan-2-yl)phenoxy]benzenesulfonamide], which IC50 is on record?
Its IC50 is over 10000 nM.

N#Cc1ccc(Oc2ccc(S(=O)(=O)Nc3ccccn3)cc2C#N)cc1Cl [Example 89, 4-(3-chloro-4-cyanophenoxy)-3-cyano-N-(pyridin-2-yl)benzenesulfonamide] was tested. Which IC50 did it give?
The IC50 was 105 nM.

Cc1cc(Cl)cc(Oc2ccc(S(=O)(=O)Nc3ccc(F)cn3)cc2C#N)c1 [Example 15, 4-(3-chloro-5-methylphenoxy)-3-cyano-N-(5-fluoropyridin-2-yl)benzenesulfonamide] was tested. Which IC50 did it give?
The IC50 was 135 nM.

With N#Cc1cc(S(=O)(=O)Nc2ccc(F)cn2)ccc1Oc1ccc(C#N)c(C(F)(F)F)c1 [Example 6, 3-cyano-4-[4-cyano-3-(trifluoromethyl)phenoxy]-N-(5-fluoropyridin-2-yl)benzenesulfonamide] as the compound, how does the IC50 read?
Its IC50 is 267 nM.

For N#Cc1cc(S(=O)(=O)Nc2ccc(F)cn2)ccc1Oc1cc(Cl)c(F)cc1Cl [Example 107, 3-cyano-4-(2,5-dichloro-4-fluorophenoxy)-N-(5-fluoropyridin-2-yl)benzenesulfonamide], which IC50 is on record?
The IC50 was 58 nM.

N#Cc1ccc(Oc2ccc(S(=O)(=O)Nc3ccc(F)cn3)cc2Cl)cc1F [compound 228] was tested. Which IC50 did it give?
Its IC50 is 244 nM.

Which IC50 does the source give for Cc1ccnc(NS(=O)(=O)c2ccc(Oc3cccc(Cl)c3C#N)cc2)c1 [Example 216, 4-(3-chloro-2-cyanophenoxy)-N-(4-methylpyridin-2-yl)benzenesulfonamide] here?
Its IC50 is over 10000 nM.

With N#Cc1cc(S(=O)(=O)Nc2ccc(F)cn2)ccc1Oc1ccc(Cl)cc1F [Example 47, 4-(4-chloro-2-fluorophenoxy)-3-cyano-N-(5-fluoropyridin-2-yl)benzenesulfonamide] as the compound, how does the IC50 read?
The IC50 was 50 nM.

Cc1cccc(Cl)c1Oc1ccc(S(=O)(=O)Nc2ccc(F)cn2)cc1C#N [Example 123, 4-(2-chloro-6-methylphenoxy)-3-cyano-N-(5-fluoropyridin-2-yl)benzenesulfonamide] was tested. Which IC50 did it give?
The IC50 was 91 nM.

With N#Cc1cccc(Oc2ccc(S(=O)(=O)Nc3ccc(F)cn3)cc2C#N)c1 [Example 14, 3-cyano-4-(3-cyanophenoxy)-N-(5-fluoropyridin-2-yl)benzenesulfonamide] as the compound, how does the IC50 read?
Its IC50 is 206 nM.

For CC(C)(C)c1ccc(Oc2ccc(S(=O)(=O)Nc3ccc(F)cn3)cc2C#N)c(Cl)c1 [Example 127, 4-(4-tert-butyl-2-chlorophenoxy)-3-cyano-N-(5-fluoropyridin-2-yl)benzenesulfonamide], which IC50 is on record?
Its IC50 is over 10000 nM.

For “4-{4-chloro-2-[D3-methyloxy]phenoxy}-3-cyano-N-(pyridazin-3-yl)benzenesulfonamide [Example 82]”, which IC50 is on record?
The IC50 was 409 nM.

For O=S(=O)(Nc1ccc(F)cn1)c1ccc(Oc2cnc(CO)c(Cl)c2)cc1F [compound 239, 4-{[5-chloro-6-(hydroxymethyl)pyridin-3-yl]oxy}-2-fluoro-N-(5-fluoropyridin-2-yl)benzenesulfonamide], which IC50 is on record?
The IC50 was 2 nM.

With N#Cc1cc(S(=O)(=O)Nc2ccc(F)cn2)ccc1Oc1cc(F)c(F)cc1Cl [Example 177, 4-(2-chloro-4,5-difluorophenoxy)-3-cyano-N-(5-fluoropyridin-2-yl)benzenesulfonamide] as the compound, how does the IC50 read?
The IC50 was 246 nM.

How did the IC50 turn out when N#Cc1cc(S(=O)(=O)Nc2ccc(F)cn2)ccc1Oc1cc(F)cc(F)c1Cl [Example 32, 4-(2-chloro-3,5-difluorophenoxy)-3-cyano-N-(5-fluoropyridin-2-yl)benzenesulfonamide] was run?
Its IC50 is 212 nM.

With N#Cc1cc(S(=O)(=O)Nc2ccc(F)cn2)ccc1Oc1cncc(Cl)c1 [Example 202, 4-[(5-chloropyridin-3-yl)oxy]-3-cyano-N-(5-fluoropyridin-2-yl)benzenesulfonamide] as the compound, how does the IC50 read?
The IC50 was 37 nM.

Cc1ccc(Cl)cc1Oc1ccc(S(=O)(=O)Nc2ccc(F)cn2)cc1C#N [Example 39, 4-(5-chloro-2-methylphenoxy)-3-cyano-N-(5-fluoropyridin-2-yl)benzenesulfonamide] was tested. Which IC50 did it give?
The IC50 was 80 nM.

N#Cc1cc(S(=O)(=O)Nc2ccc(F)cn2)ccc1Oc1ccc(Cl)c(F)c1 [Example 55, 4-(4-chloro-3-fluorophenoxy)-3-cyano-N-(5-fluoropyridin-2-yl)benzenesulfonamide] was tested. Which IC50 did it give?
Its IC50 is 129 nM.

COc1cc(F)ccc1Oc1ccc(S(=O)(=O)Nc2ccc(F)cn2)cc1C#N [Example 160, 3-cyano-4-(4-fluoro-2-methoxyphenoxy)-N-(5-fluoropyridin-2-yl)benzenesulfonamide] was tested. Which IC50 did it give?
The IC50 was over 10000 nM.

Which IC50 does the source give for N#Cc1c(Cl)cccc1Oc1ccc(S(=O)(=O)Nc2ccncc2)cc1 [Example 217, 4-(3-chloro-2-cyanophenoxy)-N-(pyridin-4-yl)benzenesulfonamide] here?
The IC50 was over 10000 nM.

Which IC50 does the source give for CC(C)(C)c1ccc(Oc2ccc(S(=O)(=O)Nc3ccc(F)cn3)cc2C#N)cc1 [Example 137, 4-(4-tert-butylphenoxy)-3-cyano-N-(5-fluoropyridin-2-yl)benzenesulfonamide] here?
Its IC50 is over 10000 nM.

With Cc1cccc(C)c1Oc1ccc(S(=O)(=O)Nc2ccc(F)cn2)cc1C#N [Example 152, 3-cyano-4-(2,6-dimethylphenoxy)-N-(5-fluoropyridin-2-yl)benzenesulfonamide] as the compound, how does the IC50 read?
The IC50 was 50 nM.

Which IC50 does the source give for N#Cc1ccc(Oc2ccc(S(=O)(=O)Nc3ccc(F)cn3)cc2C#N)c(OC(F)F)c1 [Example 67, 3-cyano-4-[4-cyano-2-(difluoromethoxy)phenoxy]-N-(5-fluoropyridin-2-yl)benzenesulfonamide] here?
Its IC50 is 3520 nM.

For N#Cc1ccc(Oc2cc(F)c(S(=O)(=O)Nc3ncc(F)cn3)cc2Cl)cc1Cl [compound 226], which IC50 is on record?
The IC50 was 1780 nM.

For N#Cc1cc(S(=O)(=O)Nc2ccc(F)cn2)ccc1Oc1cc(F)cc(C(F)(F)F)c1 [Example 40, 3-cyano-N-(5-fluoropyridin-2-yl)-4-[3-fluoro-5-(trifluoromethyl)phenoxy]benzenesulfonamide], which IC50 is on record?
The IC50 was 988 nM.

Which IC50 does the source give for COc1ccc(Oc2ccc(S(=O)(=O)Nc3ccc(F)cn3)cc2C#N)c(C)c1 [Example 201, 3-cyano-N-(5-fluoropyridin-2-yl)-4-(4-methoxy-2-methylphenoxy)benzenesulfonamide] here?
The IC50 was 74 nM.

Which IC50 does the source give for CC(C)(O)c1ccc(Oc2ccc(S(=O)(=O)Nc3ccc(F)cn3)cc2C#N)cc1 [compound 234] here?
The IC50 was 1150 nM.

Which IC50 does the source give for COc1cc(Oc2ccc(S(=O)(=O)Nc3ccc(F)cn3)cc2C#N)ccc1Cl [Example 71, 4-(4-chloro-3-methoxyphenoxy)-3-cyano-N-(5-fluoropyridin-2-yl)benzenesulfonamide] here?
Its IC50 is 27 nM.
